Assay results as given in patent US10597398B2, “Suppression and regeneration promoting effect of low molecular weight compound on cancer and fibrosis” (NATIONAL UNIVERSITY CORPORATION TOTTORI UNIVERSITY, priority 2015, dated 2020).

What was measured:
[1] = system: CD44-expressing HSC2 cells; assay: CD44-expressing cells in HSC2 cells (cell sorter analysis); format: cell-based, human; conditions: 48 h, 25 μM IC-2 or 0.5 μM 5-FU, 83.9% without treatment
Experimental: In addition, HSC2 cells were seeded at 5×10^5 cells/10-cm cell culture dish (TPP). After 24 h, the cells were treated with 0.5 μM of 5-FU or 25 μM of IC-2. Also prepared were cells without low-molecular-weight compound treatment (0 μM). After additional 48 h, the respective cells were harvested. As a primary antibody, used was a mouse anti-human CD44 antibody (Abcam Ltd., Cambridge, UK). Then, Alexa Fluor 488-labeled goat anti-mouse IgG (H+L) (Life Technologies Corp., Carlsbad, Calif.) was used. After that, a cell sorter BD bioscience FACS Aria (Becton, Dickinson and Company, Franklin Lakes, N.J.) was used for analysis.

[2] = Liver cancer model mouse, body weight; format: in vivo, mice; conditions: 30 mg/kg 5-FU or 50 mg/kg IC-2 intraperitoneally every three days
Experimental: CD44-positive HuH-7 cells were subcutaneously transplanted in mice. Next, the engrafted mice were divided into 3 groups (DMSO group: 5 mice; 5-FU group: 4 mice; and IC-2 group: 4 mice). Then, DMSO was added to prepare 30 mg/kg of 5-FU and 50 mg/kg of IC-2 such that each liquid volume was 100 μL; and 100% DMSO, a solvent for each drug, was used as a control sample. Subsequently, each drug was dosed intraperitoneally every three days. The body weight of each mouse and the long and short diameters of a tumor were measured every three days. The tumor volume was calculated by using the following equation: Tumor volume=Long diameter×(Short diameter)^2×0.5. The volume at Day 0 was used to normalize each tumor volume, and then a graph was created. To fully evaluate a 5-FU effect, the 5-FU dose was set to an amount 2 times the regular amount 15 mg/kg used in research articles. The concentration of IC-2 corresponding to a concentration at which Wnt/β-catenin signaling was inhibited in vitro was calculated. Then, the concentration was doubled to set an IC-2 dose.

[3] = system: cancer stem cells (CD44) in HuH-7 cells; assay: Inhibitory effect on cancer stem cells (FCM analysis of CD44), Example 6.4; format: cell-based, human; conditions: CD44, day 2, IC-2 50 μM, 5-FU 0.5 μM, compared with control 1% DMSO
Experimental: CD44, a cancer stem cell marker, was used as an indicator to examine an inhibitory effect of IC-2 on cancer stem cells. First, 70 to 90% confluent HuH-7 cells were harvested and seeded at 1.5×10^6 cells per 10-cm cell culture dish. After 15 h, the cells were treated with hexachlorophene (15 μM), ICG-001 (15 μM), PKF118-310 (5 μM), IC-2 (50 μM), or 5-FU (0.5 μM), and the mixture was cultured at 37° C. Each control sample used was 1% DMSO, a solvent for each compound or the anti-cancer drug. Day 2 after the drug treatment, the cells were harvested from each culture dish. The cells were centrifuged at 1000 rpm and at 4° C. for 5 min to remove a supernatant and were then washed twice with 1 mL of 0.5% FBS/2 mM EDTA/PBS. Next, the cells were suspended in 500 μL of 5% BSA/0.5% FBS/2 mM EDTA/PBS for blocking at 4° C. for 15 min.
Then, 5 μL of a mouse anti-human CD44 monoclonal antibody (156-3C11, Cell Signaling Technology Inc., Danvers, Mass.) was added to 500 μL of the cell suspension. The mixture was resuspended and subjected to a primary antibody reaction in a dark room at 4° C. for 10 min. After that, the cells were washed 3 times with 1 mL of PBS. Subsequently, 1.0 μg of Alexa Fluor 488-labeled IgG (H+L) (Life Technologies Corp., Carlsbad, Calif.) was added and the mixture was suspended. Then, a secondary antibody reaction was carried out in a dark room at 4° C. for 10 min. […]

CD44high DLD-1 cells = assay: CD44high cells in DLD-1 cells (FCM analysis); format: cell-based, human; conditions: 48 h, 50 μM IC-2, 0.5 or 5 μM 5-FU, compared with control
Experimental: In addition, DLD-1 cells were seeded at 1×10^6 cells/10-cm cell culture dish. After 24 h, the cells were treated with 0.5 or 5 μM of 5-FU or 50 μM of IC-2. At additional 48 h, the cells were harvested. As a primary antibody, used was a mouse anti-human CD44 antibody (Abcam Ltd., Cambridge, UK). Then, Alexa Fluor 488-labeled goat anti-mouse IgG (H+L) (Life Technologies Corp., Carlsbad, Calif.) was used. After that, a MoFlo XDP (Beckman Coulter Inc., Fullerton, Calif.) was used for analysis.

Wnt/β-catenin signal = conditions: as described in Patent Literature 1; cited from earlier work
cancer stem cells = conditions: Fbxw7-deficient model mice, Takeishi et al. 2013; cited from earlier work

## O=c1[nH]cc(F)c(=O)[nH]1 [Compound 5-FU, 5-fluorouracil, reference compound]
[1]
  percentage of CD44-expressing cells: 83.3%
[2]
  body weight: no change in the body weight
[3]
  number of cancer stem cells: rather increased the number of cancer stem cells
CD44high DLD-1 cells
  percentage of CD44high cells: rather increased the percentage

## COc1c(Cl)cc(Cl)c(Cl)c1Cc1c(Cl)c(Cl)cc(Cl)c1OC [HC-1, hexachlorophene methyl ether bis(2,3,5-trichloro-6-methoxyphenyl)methane]
Wnt/β-catenin signal
  Wnt/β-catenin signal in a mesenchymal stem cell and differentiation into hepatocytes: inhibit a Wnt/β-catenin signal in a mesenchymal stem cell, thereby inducing differentiation of the mesenchymal stem cell into hepatocytes

## Cc1ccc(NC(=O)c2ccc(CN3CCN(C)CC3)cc2)cc1Nc1nccc(-c2cccnc2)n1 [imatinib]
Cancer stem cells
  cancer stem cells: cancer stem cells were killed
